Consider 1 compound from patent publication US9598384B2, “3-(2-amino-ethyl)-alkylidene)-thiazolidine-2,4-dione and 1-(2-amino-ethyl)-alkylidene-1,3-dihydro-indol-2-one derivatives as selective sphingosine kinase 2 inhibitors” (VIRGINIA COMMONWEALTH UNIVERSITY, priority 2012, dated 2017).

The target of one series is SphK1 (Homo sapiens, UniProt Q9NYA1). Briefly: SphK1 activity assay. In kind it is biochemical. The settings on record: relative activity vs no inhibitor; compounds at 10 μM (FIGS. 1, 4, 6). How it is done:
A) SphK1 and SphK2 activities were measured with 5 μM sphingosine in the absence or presence of the indicated concentrations of K145 or 10 μM DMS. Data are expressed as percentage SphK activity in the absence of inhibitor; B) Effect of K145 (10 μM) on activity of the indicated enzymes was tested by SelectScreen Kinase Profiling from Invitrogen. CaMK11β, Ca2+/calmodulin-dependent protein kinase II; CDK2, cyclin-dependent kinase 2; EGFR, Epidermal Growth Factor Receptor; Fyn, Fyn Kinase (p55); ERK2, extracellular signal-regulated kinase 2; ERK1, extracellular signal-regulated kinase 1; PKA, protein kinase A; PKCα, protein kinase C α; P13K, phosphatidylinositide 3-kinase. Data are expressed as percentage of control activity averaged from 2 independent experiments.
FIG. 3. SphK2 was incubated with indicated compounds at 10 μM, then the activity of SphK2 was determined. The data shown here is a relative activity of SphK2 compared to control (no inhibitor, column labeled Sph in the Figure). 96047 is a known SpK2 inhibitor. A5, B26, K25 and QLA13 are known compounds [Li et al. (2009) Bioorg Med Chem Lett 19: 6042-6046; Liu et al. (2012) Eur J Med Chem 47: 125-137] and were tested for purposes of comparison. “A” and “B” refer to different batches of a compound. FIG. 4. SphK1 was incubated with indicated compounds at 10 μM, then the activity of SphK1 was determined. The data shown here is a relative activity of SphK1 compared to control (no inhibitor, column labeled Sph in the Figure). 96091 is a known Spk1 inhibitor. A5, B26, K25 and QLA13 are as above for […]. “A” and “B” refer to different batches of a compound.
FIG. 6. SphK1 was incubated with indicated compounds at 10 μM, then the activity of SphK2 was determined. The data shown here is a relative activity of SphK2 compared to control (no inhibitor).

In another series the test system is U937 xenograft. Nature of the series: U937 xenografts in nude mice, oral administration.
Another series concerns JC xenograft. Nature of the series: JC xenografts in syngenic BALB/c mice, i.p. The series is classed as in vivo. The method, then: FIG. 14A-E. K145 suppresses the growth of JC xenograft in BALB/c mice. BALB/c mice (n=8) with palpable JC xenograft were treated daily with vehicle or K145 (20 mg/kg and 35 mg/kg) for 15 days by i.p. injection.
Female BALB/c mice (n=12) were injected with 1×10^6 JC cells subcutaneously in the flank, and treatment with the compound produced as described in Example 15 i.e. 3-(2-aminoethyl)-5-[3-(4-butoxyphenyl)-propylidene]-thiazolidine-2,4-dione (Formula III-K145, 20 mg/kg and 35 mg/Kg dosage daily (i.p.) was started seven days after the tumor cell injection and stopped at day […]. Mice were sacrificed at 15 days treatment.

Another series concerns ceramide. Briefly: Ceramide species in HEK293 cells by LC-ESI-MS/MS. The series is classed as cell-based. Particulars: 10 μM, 2 h. The method, then:
(§1) FIG. 16A-E. K145 accumulates and suppresses the S1P level. A and B) U937 cells were treated with K145 at the indicated concentrations for 3 h and the levels of K145 and S1P were measured by ESI-MS/MS. C) HEK293 cells were treated with K145 (10 μM) for 2 h. Lipids were extracted and different chain length species of ceramide were determined by LC-ESI-MS/MS. Numbers indicate chain length followed by the number of double bonds in the fatty acid. Data are averages of triplicate determinations and are expressed as pmol lipid/10^6 cells. D) U937 cells were treated with or without K145 (10 μM) for 3 h and levels of C1P species were determined by ESI-MS/MS. E) U937 cells were treated with FTY720 (1 μM) in the absence or presence of indicated K145 for 3 h, then FTY720-P was measured by ESI-MS/MS. *P<0.05 compared to control.

For a further series, the system named is S1P. Nature of the series: Cellular S1P level in U937 cells by ESI-MS/MS. In kind it is cell-based, human. The settings on record: 10 μM, 3 h. The method, then:
as §1
(§2) Next we examined whether K145 affects cellular levels of S1P. […] Therefore, we further characterized K145 in U937 cells. […] This might be due to the fact that many enzymes such as SphK1, SphK2, S1P lyase, and S1P phosphatise, not just SphK2, are involved in the regulation of cellular S1P. […] To further confirm its SphK2 selectivity, we then tested the effects of K145 on the phosphorylation of FTY720, a SphK2 specific substrate.

The subject of series [1] is ceramide-1-phosphate (C1P). Briefly: C1P species in U937 cells by ESI-MS/MS. Particulars: 10 μM, 3 h. In kind it is cell-based, human. The method, then: as §1, §2
Another series has as its target T1, SphK2 (Homo sapiens, UniProt Q9NRA0).
T1 sequence (Q9NRA0 1-654): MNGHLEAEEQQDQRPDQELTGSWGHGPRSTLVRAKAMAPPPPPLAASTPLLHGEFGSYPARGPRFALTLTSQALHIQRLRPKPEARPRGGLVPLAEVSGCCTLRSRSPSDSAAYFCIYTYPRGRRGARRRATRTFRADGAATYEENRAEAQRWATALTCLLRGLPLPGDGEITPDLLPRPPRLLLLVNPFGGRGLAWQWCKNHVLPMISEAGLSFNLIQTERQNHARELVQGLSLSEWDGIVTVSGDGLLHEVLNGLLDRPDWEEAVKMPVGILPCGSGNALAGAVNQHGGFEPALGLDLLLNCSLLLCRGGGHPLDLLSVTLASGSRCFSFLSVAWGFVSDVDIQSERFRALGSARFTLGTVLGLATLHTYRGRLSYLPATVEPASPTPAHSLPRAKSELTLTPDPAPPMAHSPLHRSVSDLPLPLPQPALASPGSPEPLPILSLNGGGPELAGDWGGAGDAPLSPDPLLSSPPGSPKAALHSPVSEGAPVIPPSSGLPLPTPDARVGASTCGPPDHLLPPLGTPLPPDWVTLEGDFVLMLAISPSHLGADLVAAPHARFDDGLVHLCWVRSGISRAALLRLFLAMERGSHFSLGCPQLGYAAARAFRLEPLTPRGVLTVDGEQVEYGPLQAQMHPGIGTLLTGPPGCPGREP
Nature of the series: SphK2 activity assay (sphingosine substrate, with kinetic study). The series is classed as biochemical.

Several values for one entry are separate records, joined by “and”; a condition that tells them apart may be missing. Equal values may be shown once. Entries after “also recorded” stand apart in the source; their conditions may differ.

Sequence of SphK1 (Q9NYA1 whole entry, species assumed): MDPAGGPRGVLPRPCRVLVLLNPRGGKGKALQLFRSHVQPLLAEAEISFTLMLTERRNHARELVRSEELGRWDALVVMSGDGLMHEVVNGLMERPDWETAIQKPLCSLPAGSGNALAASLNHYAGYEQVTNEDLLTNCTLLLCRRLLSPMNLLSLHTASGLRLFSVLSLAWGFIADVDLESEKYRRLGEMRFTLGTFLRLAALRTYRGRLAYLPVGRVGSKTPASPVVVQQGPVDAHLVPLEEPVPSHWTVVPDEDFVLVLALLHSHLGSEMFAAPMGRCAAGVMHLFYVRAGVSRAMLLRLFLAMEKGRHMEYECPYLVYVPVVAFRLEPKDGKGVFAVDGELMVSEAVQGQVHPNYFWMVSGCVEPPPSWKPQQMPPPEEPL
Description for SphK2: A) SphK1 and SphK2 activities were measured with 5 μM sphingosine in the absence or presence of the indicated concentrations of K145 or 10 μM DMS. […] Data are expressed as percentage of control activity averaged from 2 independent experiments. Data are expressed as mean value±SEM.
SphK2 was incubated with indicated compounds at 10 μM, then the activity of SphK2 was determined. The data shown here is a relative activity of SphK2 compared to control (no inhibitor, column labeled Sph in the Figure). […] “A” and “B” refer to different batches of a compound.
SphK2 was incubated with indicated compounds at 10 μM, then the activity of SphK2 was determined. The data shown here is a relative activity of SphK2 compared to control (no inhibitor).
Description for U937 xenograft: BALB/c-nu mice (n=7) with palpable U937 xenograft were treated daily with vehicle, tamibarotene (20 mg/kg), or K145 (50 mg/kg) for 15 days by oral gavage. After treatment, animals were sacrificed and tumors were removed, weighed and images were taken. […] Data are expressed as mean value±SEM. *P<0.05 compared to control group.
In this experiment, K145 was given at 50 mg/kg by oral gavage daily for 15 days and tumor volume and animal weights were measured every other day. Again, tamibarotene (20 mg/kg) was used as positive control.

As usually defined, the Ki is the dissociation constant of the complex between target and ligand, obtained from inhibition or displacement. A lower Ki goes with higher affinity. Usually IC50 stands for the concentration at which inhibition is half-maximal. With `CCCCOc1ccc(CC/C=C2\SC(=O)N(CCN)C2=O)cc1` [K145, 3-(2-aminoethyl)-5-[3-(4-butoxyl-phenyl)-propylidene]-thiazolidine-2,4-dione], the “inhibition of SphK1 activity (in words)” value against SphK1 is “not SphK1”. Moreover, in the series on U937 xenograft (50 mg/kg oral gavage), the oral availability entry is on record as “orally available”. The toxicity entry in the series on U937 xenograft (50 mg/kg oral, 15 days) was “no apparent toxicity was observed”. For the same compound, the body weights entry with U937 xenograft (50 mg/kg oral, beginning of the treatment, recovered later) is “slight decrease of body weights”. For the same compound, in the series with U937 xenograft (oral gavage daily 15 days, K145 50 mg/kg, tamibarotene 20 mg/kg), the “TGI (tumor growth inhibition)” value was determined as 51.25%. The “S1P level in JC tumor samples” value with JC xenograft (20 mg/kg group vs vehicle, ESI-MS/MS) is listed as “suppressed”. Also, the “K145 level in JC tumor samples” value in the series on JC xenograft (20 mg/kg group, ESI-MS/MS) was “detected”. For the same compound, in the series with JC xenograft (20 mg/kg vs vehicle, Western blot), the “p-ERK and p-Akt levels in tumor samples” value is on record as “decreased”. In the series with JC xenograft (20 and 35 mg/kg i.p., 15 days), the “changes in body weights and major organs (heart, lung, liver, kidney)” value is “did not observe significant changes”; the “tumor weights vs vehicle-treated mice” value is listed as “significantly less”. Moreover, in the series on JC xenograft (both doses (20 and 35 mg/kg daily i.p.), after 15 days), the “mean volume of JC tumors smaller than in vehicle-treated mice” value is on record as greater than 50%. The ceramide levels entry in the series on ceramide was “without significant effects”. Besides, the “total cellular S1P” value in the series on S1P is given as “caused a decrease”. The “level of ceramide-1-phosphate (C1P)” value in series [1] is listed as “not significantly affected”. The compound further showed a Ki at SphK2 (Lineweaver-Burk analysis, increasing concentrations of sphingosine) of 6.4 ± 0.7 µM. Besides, the IC50 on SphK2 (recombinant SphK2, 5 μM sphingosine) was 5 µM and 4.3 µM. The “inhibition of SphK2 activity (in words)” value at SphK2 (relative activity vs no inhibitor, compounds at 10 μM (FIGS. 1, 3, 5)) is “significantly inhibit SphK2; also recorded: inhibits SphK2”. In addition, the “type of SphK2 inhibition” value at SphK2 (with the substrate sphingosine) is given as “competitive inhibitor”.
